From US20060210584A1, “Method for preparing citrinin-free Monascus biomass and use of citrinin-free Monascus biomass” (priority 2005, published 2006)

Legend:
mouse = conditions: cited from earlier work
[1] = Reducing power (potassium ferricyanide); format: biochemical; conditions: absorbance 700 nm
Experimental: (§1) A freeze-dried sample of Example 1 was weighed and made up to 100 mg/mL in distilled water. The solution was autoclaved at 121° C. for 15 min. The supernatant was harvested after centrifugation at 4° C. was stored at −20° C. A serial dilution was then made with the stock aqueous extract into a series of increasing concentrations of the extracts up to 100 mg/mL solution. For the assay of the scavenging of DPPH radicals, a methanolic extract (membrane-filtered; 0.45 μm membrane, Acrodisc 4CR, PTEE) (replacing the solvent water with methanol and procedure stated in the first sentence) was used instead.
2.5 mL of 1% potassium ferricyanide [K3Fe(CN)6] was added to 1.0 mL of an aqueous Monascus extract of variable concentrations (prepared as stated above). The resultant mixture was incubated at 50° C. for 20 min. 2.5 mL of trichloracetic acid (TCA, 10%) were added to the mixture. 2.5 mL of the resultant solution were mixed with 2.5 mL of distilled water and 0.5 mL of FeCl3 solution (0.1%). The absorbance was measured at 700 nm. Increased absorbance of the reaction mixture indicated an increase of reducing power. Vitamin C was used as a positive control in this experiment.

[2] = system: microsomal lipid peroxidation; experiment: Inhibition of microsomal lipid peroxidation (MDA-TBA); format: biochemical; conditions: rat liver microsomes, 10 μM FeSO4 and 0.1 mM ascorbic acid, 37° C. 60 min; aqueous extract
Experimental: as §1
Normal rats were sacrificed by cervical dislocation. The liver of the rats was rapidly homogenized in 0.25M of an ice-cold sucrose solution and the resultant solution was centrifuged at 12,000×g for 20 min at 4° C. The supernatant obtained was centrifuged at 15,000×g for 60 min at 4° C. […]
The microsomes (200-300 μg/mL) were incubated at 37° C. for 60 min with the extract sample of Monascus biomass at variable concentrations, 10 μM FeSO4 and 0.1 mM ascorbic acid in 1.0 mL of a phosphate buffered saline (PBS, 0.25M, pH7.4). […] After centrifugation of precipitated protein, the color reaction of MDA-TBA complex was detected at OD 532 nm. […]
where A was the absorbance (OD532) of the negative control, and A1 was that of the tested sample.

[3] = Scavenging of superoxide radicals (PMS-NADH/NBT); format: biochemical; conditions: PMS-NADH system, NBT, OD 560 nm; aqueous extract
Experimental: as §1
Superoxide radicals were generated in a PMS-NADH [phenazin methosulfate (PMS)-β-nicotinamide adenine dinucleotide (reduced from, NADH)] system by oxidation of NADH and assayed by the reduction of nitroblue tetrazolium (NBT). The superoxide radicals were generated in 3 mL of Tris-HCl buffer (16 mM, pH8.0), which contained 78 μM NADH, 50 μM NBT, 10 μM PMS and Monascus extracts at different concentrations to be tested. The color reaction between superoxide radicals and NBT was detected at OD 560 nm. L-ascorbic acid was used as a positive control. The inhibition rate (%) was calculated using the following formula: Inhibition rate (%)=(A−A1)/A×100%
where A was the absorbance of a negative control (distilled water), and A1 was the absorbance of the tested sample.

[4] = Scavenging of DPPH radicals; format: biochemical; conditions: methanolic extract; absorbance 515 nm, 30 s
Experimental: as §1
1.8 mL of a methanolic solution of DPPH (6×10^−5M 2,2-diphenyl-1-picrylhydrazyl) was added to 0.2 mL of a methanolic Monascus extract of variable concentrations (prepared as described above). The absorbance of the reaction mixture was measured at 515 nm exactly 30s after the DPPH solution was added. Vitamin E and methanol were used as positive and negative controls, respectively.
The inhibition rate (%) was calculated using the following formula: Inhibition rate (%)=(A−A1)/A×100%
where A was the absorbance of the negative control, and A1 was that of the tested sample.

In the case of `CC1=C2C(=CO[C@H](C)[C@H]2C)C(O)=C(C(=O)O)C1=O` [citrinin], the “LD50 (lethal dose causing decrease of 50% population)” value (mouse) is given as 35 mg/kg.
With `O=C1O[C@H]([C@@H](O)CO)C(O)=C1O` [Vitamin C, L-ascorbic acid] the “reducing power, concentration range of action” value [1] was “less than 1 mg/mL”, the “effective concentration giving 50% inhibition of microsomal lipid peroxidation” value [2] was 0.1 mg/mL and the “effective concentration giving 50% inhibition, scavenging of superoxide radicals” value [3] was 1.5 mg/mL.
For Vitamin E, the “effective concentration to give 50% inhibition, scavenging of DPPH radicals” value [4] was 1 mg/mL.
